Data from patent publication US20110104702A1, “Methods for Predicting Tumor Response to Chemotherapy and Selection of Tumor Treatment” (NATIONAL UNIVERSITY HOSPITAL, priority 2008, published 2011).

What was measured:
cT3-T4 breast tumors = test: Independent dataset: four cycles of pre-operative single agent docetaxel, pathological response; assay type: in vivo, human
Description: Next, we applied the 90-supergene panels for pathological response to the original cohort using unsupervised hierarchical clustering, and found, expectedly, the predictors to be highly accurate; the division yielded groups with different PFS, though not statistically significant (Table 1). To validate the pathological response signatures further, we applied them, using SVM, in an independent set of 18 patients treated with four cycles of neoadjuvant three-weekly single agent docetaxel prior to surgery, who had tumor biopsy before and 3 weeks after one chemotherapy cycle. Pathological response definition was similar to our original cohort. Consistent with the findings for the PFS predictors, T2 outperformed T1 signatures, with the AUC of ROC being 0.631 (95% CI 0.350-0.912) for T2 compared to 0.462 (95% CI 0.190-0.733) and 0.446 (95% Cl 0.161-0.731) for TΔ and T1 respectively. T2 signatures accurately identified 77% of poor pathological responders, compared to 54% for both T1 and TΔ (FIG. 2c-d).
An independent dataset comprising of 18 breast cancer patients treated with pre-operative chemotherapy followed by surgery as part of another clinical protocol at our institution was used to validate the gene expression signatures that predict for pathological response. Validation was performed using SVM. In brief, patients from this independent dataset had cT3-T4 breast tumors and were treated with four cycles of pre-operative single agent docetaxel every three weeks. […] Patients underwent lumpectomy or mastectomy and axillary clearance after chemotherapy, and were classified as good (5/18) and poor (13/18) pathological responders using the same criteria as described in our primary cohort. This dataset was not used to validate the PFS signatures as the median follow-up was short at 18.5 months, and only 5/18 had progressed at the time of analysis.

[1] = system: locally advanced breast cancers; conditions: weekly doxorubicin 14 mg/m^2 for 16 weeks, n=20; cited from earlier work
[2] = four cycles of docetaxel every three weeks, then surgery, n=18

Compound	good pathological responders (cT3-T4 breast tumors; [2])	poor pathological responders (cT3-T4 breast tumors; [2])	patients progressed at the time of analysis (cT3-T4 breast tumors; median follow-up 18.5 months)	median relapse-free survival [1] [months]	patients relapsed [1]
CC(=O)O[C@@]12CO[C@@H]1C[C@H](O)[C@@]1(C)C(=O)[C@H](O)C3=C(C)[C@@H](OC(=O)[C@H](O)[C@@H](NC(=O)OC(C)(C)C)c4ccccc4)C[C@@](O)([C@@H](OC(=O)c4ccccc4)[C@H]21)C3(C)C [docetaxel]	5/18	13/18	5/18	–	–
COc1cccc2c1C(=O)c1c(O)c3c(c(O)c1C2=O)C[C@@](O)(C(=O)CO)C[C@@H]3O[C@H]1C[C@H](N)[C@H](O)[C@H](C)O1 [doxorubicin]	–	–	–	25	12/20
